Calls of active or inactive are those of the source. No rule for the calls is given here.
Test system: CCRIS mutagenicity, Ames/micronucleus/aberration tests
Assay: CCRIS mutagenicity studies
[1] = Test System: AMES SALMONELLA TYPHIMURIUM, Strain/Indicator: TA98, Metabolic Activation: NONE, Method: PREINCUBATION
[2] = Test System: AMES SALMONELLA TYPHIMURIUM, Strain/Indicator: TA100, Metabolic Activation: NONE, Method: PREINCUBATION
[3] = Test System: AMES SALMONELLA TYPHIMURIUM, Strain/Indicator: TA1535, Metabolic Activation: NONE, Method: PREINCUBATION
[4] = Test System: AMES SALMONELLA TYPHIMURIUM, Strain/Indicator: TA100, Metabolic Activation: NONE, Method: STANDARD PLATE
[5] = Test System: AMES SALMONELLA TYPHIMURIUM, Strain/Indicator: TA100, Metabolic Activation: RAT, LIVER, S-9, AROCLOR 1254, Method: STANDARD PLATE

CC(O)CN(CC(C)O)CC(C)O (configuration not stated)
mutagenic call (Test System: AMES SALMONELLA TYPHIMURIUM, Strain/Indicator: TA98, Metabolic Activation: HAMSTER, LIVER, S-9, AROCLOR 1254 (10%), Method: PREINCUBATION): inactive; negative
mutagenic call [1]: inactive; negative
mutagenic call (Test System: AMES SALMONELLA TYPHIMURIUM, Strain/Indicator: TA98, Metabolic Activation: RAT, LIVER, S-9, AROCLOR 1254 (10%), Method: PREINCUBATION): inactive; negative
mutagenic call (Test System: AMES SALMONELLA TYPHIMURIUM, Strain/Indicator: TA100, Metabolic Activation: HAMSTER, LIVER, S-9, AROCLOR 1254 (10%), Method: PREINCUBATION): inactive; negative
mutagenic call [2]: inactive; negative
mutagenic call (Test System: AMES SALMONELLA TYPHIMURIUM, Strain/Indicator: TA100, Metabolic Activation: RAT, LIVER, S-9, AROCLOR 1254 (10%), Method: PREINCUBATION): inactive; negative
mutagenic call (Test System: AMES SALMONELLA TYPHIMURIUM, Strain/Indicator: TA1535, Metabolic Activation: HAMSTER, LIVER, S-9, AROCLOR 1254 (10%), Method: PREINCUBATION): inactive; negative
mutagenic call [3]: inactive; negative
mutagenic call (Test System: AMES SALMONELLA TYPHIMURIUM, Strain/Indicator: TA1535, Metabolic Activation: RAT, LIVER, S-9, AROCLOR 1254 (10%), Method: PREINCUBATION): inactive; negative
mutagenic call (Test System: AMES SALMONELLA TYPHIMURIUM, Strain/Indicator: TA1537, Metabolic Activation: HAMSTER, LIVER, S-9, AROCLOR 1254 (10%), Method: PREINCUBATION): inactive; negative
mutagenic call (Test System: AMES SALMONELLA TYPHIMURIUM, Strain/Indicator: TA1537, Metabolic Activation: NONE, Method: PREINCUBATION): inactive; negative
mutagenic call (Test System: AMES SALMONELLA TYPHIMURIUM, Strain/Indicator: TA1537, Metabolic Activation: RAT, LIVER, S-9, AROCLOR 1254 (10%), Method: PREINCUBATION): inactive; negative

CC1=C(/C=C/C(C)=C/C=C/C(C)=C/C=C/C=C(C)/C=C/C=C(\C)C=O)C(C)(C)CCC1
mutagenic call (End Point: In vitro chromosomal aberrations, Test System: Primary rat (Fischer, female) hepatocytes, Metabolic Activation: None): active; positive
mutagenic call (End Point: In vitro micronucleus, Test System: Primary rat (Fischer, female) hepatocytes, Metabolic Activation: None): active; positive
mutagenic call (Test System: AMES SALMONELLA TYPHIMURIUM, Strain/Indicator: TA98, Metabolic Activation: NONE, Method: STANDARD PLATE): inactive; negative
mutagenic call (Test System: AMES SALMONELLA TYPHIMURIUM, Strain/Indicator: TA98, Metabolic Activation: RAT, LIVER, S-9, AROCLOR 1254, Method: STANDARD PLATE): inactive; negative
mutagenic call [4]: inactive; negative
mutagenic call [5]: inactive; negative

CN(C)N
mutagenic call (End Point: IN VITRO CHROMOSOMAL ABERRATIONS, Test System: CHL CELLS, Metabolic Activation: NONE): active; positive (structural changes)
mutagenic call (End Point: IN VITRO CHROMOSOMAL ABERRATIONS, Test System: CHL CELLS, Metabolic Activation: RAT, LIVER, S-9, SODIUM PHENOBARBITAL AND 5,6-BENZOFLAVONE): active; positive (structural changes)
mutagenic call [1]: inactive; negative
mutagenic call (Test System: AMES SALMONELLA TYPHIMURIUM, Strain/Indicator: TA98, Metabolic Activation: RAT LIVER S-9, PHENOBARBITAL AND BETA-NAPHTHOFLAVONE, Method: PREINCUBATION): inactive; negative
mutagenic call [2]: inactive; negative
mutagenic call [4]: inactive; negative
mutagenic call (Test System: AMES SALMONELLA TYPHIMURIUM, Strain/Indicator: TA100, Metabolic Activation: RAT LIVER S-9, PHENOBARBITAL AND BETA-NAPHTHOFLAVONE, Method: PREINCUBATION): inactive; negative
mutagenic call (Test System: AMES SALMONELLA TYPHIMURIUM, Strain/Indicator: TA100, Metabolic Activation: RAT, LIVER, S-9, AROCLOR 1254 (1 OR 2 MG), Method: STANDARD PLATE): inactive; negative
mutagenic call [5]: inactive; negative
mutagenic call (Test System: AMES SALMONELLA TYPHIMURIUM, Strain/Indicator: TA102, Metabolic Activation: NONE, Method: PREINCUBATION): inactive; negative
mutagenic call (Test System: AMES SALMONELLA TYPHIMURIUM, Strain/Indicator: TA102, Metabolic Activation: NONE, Method: STANDARD PLATE): inactive; negative
mutagenic call (Test System: AMES SALMONELLA TYPHIMURIUM, Strain/Indicator: TA102, Metabolic Activation: RAT LIVER S-9, PHENOBARBITAL AND BETA-NAPHTHOFLAVONE, Method: PREINCUBATION): inactive; negative
mutagenic call (Test System: AMES SALMONELLA TYPHIMURIUM, Strain/Indicator: TA102, Metabolic Activation: RAT, LIVER, S-9, AROCLOR 1254 (1 OR 2 MG), Method: STANDARD PLATE): inactive; negative
mutagenic call (Test System: AMES SALMONELLA TYPHIMURIUM, Strain/Indicator: TA102, Metabolic Activation: RAT, LIVER, S-9, AROCLOR 1254, Method: STANDARD PLATE): inactive; negative
mutagenic call (Test System: AMES SALMONELLA TYPHIMURIUM, Strain/Indicator: TA104, Metabolic Activation: NONE, Method: PREINCUBATION): inactive; negative
mutagenic call (Test System: AMES SALMONELLA TYPHIMURIUM, Strain/Indicator: TA104, Metabolic Activation: RAT LIVER S-9, PHENOBARBITAL AND BETA-NAPHTHOFLAVONE, Method: PREINCUBATION): inactive; negative
mutagenic call (Test System: AMES SALMONELLA TYPHIMURIUM, Strain/Indicator: TA1530, Metabolic Activation: NONE, Method: STANDARD PLATE): active; positive
mutagenic call [3]: inactive; negative
mutagenic call (Test System: AMES SALMONELLA TYPHIMURIUM, Strain/Indicator: TA1535, Metabolic Activation: RAT LIVER S-9, PHENOBARBITAL AND BETA-NAPHTHOFLAVONE, Method: PREINCUBATION): inactive; negative
mutagenic call (Test System: AMES SALMONELLA TYPHIMURIUM, Strain/Indicator: TA1535, Metabolic Activation: RAT, LIVER, S-9, AROCLOR 1254, Method: PREINCUBATION): inactive; negative
mutagenic call (Test System: AMES SALMONELLA TYPHIMURIUM, Strain/Indicator: TA1537, Metabolic Activation: RAT LIVER S-9, PHENOBARBITAL AND BETA-NAPHTHOFLAVONE, Method: PREINCUBATION): inactive; negative
mutagenic call (Test System: AMES SALMONELLA TYPHIMURIUM, Strain/Indicator: TA1537, Metabolic Activation: RAT, LIVER, S-9, AROCLOR 1254, Method: PREINCUBATION): inactive; negative
mutagenic call (Test System: AMES SALMONELLA TYPHIMURIUM, Strain/Indicator: TA2638, Metabolic Activation: NONE, Method: STANDARD PLATE): active; positive
mutagenic call (Test System: E. COLI, Strain/Indicator: WP2 (PKM101), Metabolic Activation: NONE, Method: STANDARD PLATE): active; positive
mutagenic call (Test System: E. COLI, Strain/Indicator: WP2 UVRA (PKM101), Metabolic Activation: NONE, Method: STANDARD PLATE): active; positive
mutagenic call (Test System: E.COLI, Strain/Indicator: WP2UVRA/PKM101, Metabolic Activation: NONE, Method: PREINCUBATION): inactive; negative
mutagenic call (Test System: E.COLI, Strain/Indicator: WP2UVRA/PKM101, Metabolic Activation: RAT LIVER S-9, PHENOBARBITAL AND BETA-NAPHTHOFLAVONE, Method: PREINCUBATION): inactive; negative
mutagenic call (Test System: E.COLI, Strain/Indicator: WP2UVRA, Metabolic Activation: NONE, Method: PREINCUBATION): inactive; negative
mutagenic call (Test System: E.COLI, Strain/Indicator: WP2UVRA, Metabolic Activation: RAT LIVER S-9, PHENOBARBITAL AND BETA-NAPHTHOFLAVONE, Method: PREINCUBATION): inactive; negative

From PubChem BioAssay AID1259407 (Chemical Carcinogenesis Research Information System (CCRIS), 2018)
